GI50 and TGI data for 12 molecules are collected here from PubChem BioAssay (NCI).

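Values below derive from 48-hour exposures of cells grown in 96-well plates, with endpoints linearly interpolated between the two concentrations bracketing the appropriate inhibition level. GI50 = concentration required for 50% inhibition of growth. Definition used: TGI = concentration required for complete inhibition of growth.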

Test systems include MDA-MB-435; K-562 leukemia; HOP-62 NSCLC; ACHN renal; SK-MEL-28 melanoma; NCI-H226 lung; A498 renal; T-47D breast; SF-268 CNS; NCI-H460 lung.
What all share (test): growth of human tumour cells (NCI), 48 h

For the molecule `C[C@H](N)C(=O)N1C[C@H](CCCB(O)O)[C@](N)(C(=O)O)C1`, the GI50 in the assay on MDA-MB-435, in the assay with K-562 leukemia, in the assay on HOP-62 NSCLC, in the assay with ACHN renal, in the assay with SK-MEL-28 melanoma and in the assay on NCI-H226 lung was greater than 100 µM each time. For the same molecule, the GI50 with A498 renal, in the assay with T-47D breast, in the assay with SF-268 CNS and in the assay with NCI-H460 lung was greater than 100 µM in each case. The TGI in the assay with MDA-MB-435, with K-562 leukemia, in the assay on HOP-62 NSCLC, in the assay with ACHN renal, with SK-MEL-28 melanoma and with NCI-H226 lung was greater than 100 µM each time. In addition, the TGI in the assay with A498 renal, in the assay with T-47D breast, in the assay with SF-268 CNS and in the assay on NCI-H460 lung was greater than 100 µM in each case.
With `COc1ccc(OC)c2c(=S)c3ccccc3[nH]c12`, the TGI in the assay on MDA-MB-435 was greater than 100 µM; with K-562 leukemia, greater than 92.6 µM; in the assay with HOP-62 NSCLC, greater than 100 µM; in the assay with ACHN renal, greater than 100 µM; in the assay with SK-MEL-28 melanoma, greater than 100 µM; in the assay on NCI-H226 lung it was greater than 21.5 µM. Moreover, the TGI in the assay with A498 renal is greater than 100 µM; in the assay with T-47D breast, greater than 100 µM; in the assay on SF-268 CNS, greater than 100 µM; in the assay on NCI-H460 lung, greater than 85 µM.
`CC(C)Nc1ncc2cc(Oc3ccc(F)cc3F)c(=O)n(C)c2n1`: the GI50 in the assay on MDA-MB-435, in the assay on K-562 leukemia, with HOP-62 NSCLC, in the assay on ACHN renal, with SK-MEL-28 melanoma and in the assay with NCI-H226 lung was greater than 25 µM throughout. Besides, the GI50 was 5.39 µM in the assay with A498 renal, greater than 25 µM in the assay with T-47D breast, greater than 23.7 µM in the assay with SF-268 CNS and greater than 25 µM in the assay on NCI-H460 lung. For the same molecule, the TGI in the assay on MDA-MB-435, in the assay with K-562 leukemia, with HOP-62 NSCLC, in the assay on ACHN renal, in the assay on SK-MEL-28 melanoma and with NCI-H226 lung was greater than 25 µM each time. In addition, the TGI with A498 renal, in the assay on T-47D breast, with SF-268 CNS and in the assay with NCI-H460 lung was greater than 25 µM each time.
With `CC(=O)OC1Oc2ccccc2-c2oc(=O)c(-c3cc4ccccc4oc3=O)cc21` (configuration not stated), the GI50 in the assay with MDA-MB-435 is 22.3 µM; in the assay with K-562 leukemia, 27.6 µM; in the assay on HOP-62 NSCLC, 18.6 µM; with ACHN renal, 14.1 µM; in the assay with SK-MEL-28 melanoma it was 32.7 µM; in the assay with NCI-H226 lung, 17.1 µM. Also, the GI50 in the assay with A498 renal was 18.8 µM; in the assay with T-47D breast, 21.3 µM; in the assay on SF-268 CNS, 19.6 µM; with NCI-H460 lung, 27.8 µM. The TGI is 79.6 µM in the assay on MDA-MB-435; greater than 100 µM with K-562 leukemia; 34.4 µM with HOP-62 NSCLC; 29.6 µM with ACHN renal; 87.3 µM in the assay on SK-MEL-28 melanoma; 35.4 µM with NCI-H226 lung. In addition, the TGI in the assay with A498 renal turned out to be 43.9 µM; in the assay on T-47D breast, 51.8 µM; with SF-268 CNS it was 40.9 µM; with NCI-H460 lung it was 91 µM.
For the molecule `Nc1ncnc2c1cnn2Cc1ccc(Cl)cc1`, the TGI in the assay on MDA-MB-435, in the assay with K-562 leukemia, in the assay with HOP-62 NSCLC, in the assay on ACHN renal, in the assay with SK-MEL-28 melanoma and in the assay with NCI-H226 lung was greater than 100 µM each time. Moreover, the TGI is 68.6 µM with A498 renal, greater than 100 µM in the assay with T-47D breast, greater than 100 µM in the assay on SF-268 CNS and greater than 100 µM in the assay on NCI-H460 lung. In addition, the GI50 was greater than 100 µM in the assay on HOP-62 NSCLC and 74.8 µM in the assay with SK-MEL-28 melanoma.
On to `Cn1c(=O)c(Oc2ccccc2)cc2cnc(NC3CCOCC3)nc21`, for which the GI50 in the assay with MDA-MB-435, in the assay on K-562 leukemia, in the assay with HOP-62 NSCLC, in the assay on ACHN renal, in the assay on SK-MEL-28 melanoma and in the assay with NCI-H226 lung was greater than 25 µM each time. Moreover, the GI50 in the assay on A498 renal, with T-47D breast, with SF-268 CNS and with NCI-H460 lung was greater than 25 µM in each case. Further, the TGI in the assay on MDA-MB-435, in the assay on K-562 leukemia, in the assay with HOP-62 NSCLC, with ACHN renal, in the assay with SK-MEL-28 melanoma and with NCI-H226 lung was greater than 25 µM in each case. Further, the TGI in the assay on A498 renal, in the assay on T-47D breast, with SF-268 CNS and in the assay on NCI-H460 lung was greater than 25 µM throughout.
`Nc1nc(-c2cccc([N+](=O)[O-])c2)cc(-c2cc(-c3cccc([N+](=O)[O-])c3)nc(N)n2)n1`: the TGI in the assay with MDA-MB-435, with K-562 leukemia, in the assay on HOP-62 NSCLC, with ACHN renal, with SK-MEL-28 melanoma and with NCI-H226 lung was greater than 100 µM throughout. Further, the TGI with A498 renal, with T-47D breast, with SF-268 CNS and with NCI-H460 lung was greater than 100 µM each time.
Take `COc1cc(OC)c(C(=O)/C=C/c2cccc(OC(C)=O)c2)cc1CC=C(C)C`: the GI50 with MDA-MB-435 is 5.67 µM; in the assay on K-562 leukemia, 8.56 µM; in the assay on HOP-62 NSCLC it was 10.4 µM; in the assay on ACHN renal, 10.1 µM; in the assay on SK-MEL-28 melanoma, 9.52 µM; in the assay with NCI-H226 lung, 12.8 µM. Also, the GI50 in the assay with A498 renal was 16.9 µM; in the assay with T-47D breast, 4.15 µM; in the assay on SF-268 CNS it was 7.26 µM; with NCI-H460 lung, 6.57 µM. The TGI in the assay on MDA-MB-435 was 31.1 µM; in the assay on K-562 leukemia, greater than 50 µM; with HOP-62 NSCLC, 19.6 µM; in the assay with ACHN renal it was 29.2 µM; in the assay on SK-MEL-28 melanoma it was 22.2 µM; with NCI-H226 lung, 40.7 µM. Further, the TGI is greater than 50 µM with A498 renal, 16.7 µM in the assay with T-47D breast, 22.7 µM in the assay on SF-268 CNS and 17.8 µM in the assay with NCI-H460 lung.
With `NC(=O)c1ccc2nc3c(n2c1)C(=O)C(=O)c1ccccc1-3`, the GI50 with MDA-MB-435 is 0.186 µM; with K-562 leukemia, 0.677 µM; in the assay with HOP-62 NSCLC it was 1.39 µM; in the assay with ACHN renal it was 1.34 µM; in the assay on SK-MEL-28 melanoma, 1.07 µM; in the assay on NCI-H226 lung it was 1.71 µM. Moreover, the GI50 with A498 renal was 1.73 µM; in the assay on T-47D breast it was 0.415 µM; in the assay on SF-268 CNS, 0.436 µM; in the assay on NCI-H460 lung, 1.53 µM. In addition, the TGI in the assay on MDA-MB-435 amounted to 0.336 µM; with K-562 leukemia it was 3.73 µM; with HOP-62 NSCLC it was 2.8 µM; with ACHN renal, 2.62 µM; in the assay on SK-MEL-28 melanoma, 2.29 µM; with NCI-H226 lung, 3.8 µM. Further, the TGI with A498 renal worked out at 3.14 µM; with T-47D breast, 2.54 µM; in the assay on SF-268 CNS it was 1.66 µM; in the assay with NCI-H460 lung, 3.34 µM.
As for `COc1ccc2c(c1)/C(=N/OC(C)=O)c1c-2c(=O)[nH]c2ccccc12`, the GI50 in the assay on MDA-MB-435 is 17.3 µM; with K-562 leukemia it was 11.3 µM; in the assay with HOP-62 NSCLC, 18 µM; in the assay with ACHN renal, 14.2 µM; in the assay on SK-MEL-28 melanoma, 12.7 µM; in the assay on NCI-H226 lung it was 14.3 µM. Further, the GI50 was 7.45 µM in the assay on A498 renal, 3 µM in the assay with T-47D breast, 25.1 µM in the assay with SF-268 CNS and 59 µM with NCI-H460 lung. In addition, the TGI with MDA-MB-435 came out at 34.5 µM; in the assay with K-562 leukemia, 28.7 µM; in the assay with HOP-62 NSCLC, 34.4 µM; in the assay on ACHN renal, 28.2 µM; in the assay with SK-MEL-28 melanoma, 26.6 µM; in the assay with NCI-H226 lung, 29.8 µM. Moreover, the TGI in the assay with A498 renal was 32.4 µM; with T-47D breast, 27.2 µM; with SF-268 CNS, greater than 100 µM; in the assay with NCI-H460 lung, greater than 100 µM.
Regarding `N#C/C(=C\c1ccc(Br)cc1)n1nnc2ccccc21`, the GI50 in the assay on MDA-MB-435 was 0.191 µM; with K-562 leukemia it was 0.235 µM; in the assay on HOP-62 NSCLC, 1.92 µM; with ACHN renal it was 0.521 µM; in the assay on SK-MEL-28 melanoma it was 0.94 µM; in the assay on NCI-H226 lung it was 1.4 µM. The GI50 was 1.71 µM in the assay with A498 renal, 0.376 µM in the assay with T-47D breast, 2.62 µM in the assay with SF-268 CNS and 1.68 µM with NCI-H460 lung. The TGI is 0.438 µM with MDA-MB-435; greater than 19.7 µM in the assay on K-562 leukemia; 10.5 µM in the assay on HOP-62 NSCLC; 2.01 µM in the assay on ACHN renal; 3.54 µM in the assay on SK-MEL-28 melanoma; 6.75 µM in the assay on NCI-H226 lung. In addition, the TGI was 4.37 µM in the assay on A498 renal, 4.74 µM with T-47D breast, 9.24 µM with SF-268 CNS and 3.82 µM in the assay on NCI-H460 lung.
`O=C(Nc1ccccc1)Nc1cccc(Oc2nnc(Cl)c3ccccc23)c1`: the GI50 is 7.54 µM in the assay with MDA-MB-435; 6.21 µM with K-562 leukemia; 2.52 µM in the assay with HOP-62 NSCLC; 3.47 µM in the assay on ACHN renal; 3.57 µM with SK-MEL-28 melanoma; 1.95 µM in the assay on NCI-H226 lung. The GI50 with A498 renal is 3.45 µM; in the assay with T-47D breast, 0.863 µM; in the assay on SF-268 CNS, 2.89 µM; in the assay on NCI-H460 lung, 2.67 µM. Besides, the TGI was greater than 25 µM in the assay on MDA-MB-435; greater than 25 µM in the assay on K-562 leukemia; 6.54 µM in the assay on HOP-62 NSCLC; 18.7 µM in the assay on ACHN renal; 12.7 µM with SK-MEL-28 melanoma; 9.25 µM in the assay with NCI-H226 lung. In addition, the TGI in the assay on A498 renal amounted to 13.1 µM; with T-47D breast it was 10.8 µM; in the assay with SF-268 CNS, 7.57 µM; in the assay with NCI-H460 lung it was 8.65 µM.
